What all share (assay type): physicochemical
Series [1] in a line: Measurement of charge amount (Espartoanalyzer, sample mixed with iron powder 1:9, 500 V). The settings on record: for Average of charge: average of two measurements. The text has this:
In the present specification, the term “lowly-charged powder” means powder in which negative charge of surface potential is reduced (powder unsusceptible to negative charge) and encompasses positively charged powder. Concretely, it means powder having an average electric charge, measured with a particle charge distribution measuring device (for example, particle charge distribution measuring device using Laser Doppler speed meter), of not less than −2 q/m (namely, electric charge is negative and its absolute value is not more than 2, or electric charge is zero or positive value), preferably of not less than −1 q/m. The average electric charge is preferably not more than +5, more preferably not more than +3, and most preferably not more than +1. Measurement of electric charge may be conducted according to a manual of the device, and a condition and a measuring device are not particularly limited. For instance, after mixing a compound to be measured and iron powder in a ratio of about 1:9, about 1 g of mixture is collected. […]
400 mg of the acetaminophen powder containing PEG4000 (Acetaminophen:PEG=32:1, PEG adding ratio 0.03) obtained in Example 1 and 3600 mg of iron powder (TEFV-200/300 (registered trademark, Powdertech) as a carrier were filled into a glass vessel, and the mixture was mixed by hands for ten seconds. About 1 g of thus-obtained sample (true density of the particles: 1.20 g/cm^3) were collected and the charge amount was measured using Espartoanalyzer (Hosokawa Micron company). […]
Charge amount of the acetaminophen powder (without adding PEG) was measured by the same method as described above as a control (numbers of particles: 500).
Charge amount of each sample was measured twice and the average of the results are shown below.
Charge amount of the following samples were measured by the same method as Experiment 1. • i) 300 mg of Compound (I-1) […]

Series [2] can be described thus: Measurement of bulk density (3 cc vessel, tapped three times). The text has this: As an index for charge suppression of the obtained powder, bulk. density of the powder may be examined rather than measuring surface potential of the powder. […] When the bulk density is not less than 0.25 g/cc, preferably 0.28 g/cc, suction by a machine and transfer from a filling machine to a filling vessel may be conducted favorably, and a certain operability must be secured. The bulk density is a value determined in the manner as described below. First, 3 cc of sample to be measured is put into a vessel, and then the vessel is lightly tapped several to 10 times, preferably about 3 times. When the bulk is reduced, powder is supplemented, and this operation is repeated. At the time when the bulk no longer changes, a sample weight per 1 cc is determined. The bulk density of lowly-charged powder determined in the method of the present invention is 1.5 times or more, preferably 1.6 times or more, and further preferably 1.8 times or more the “bulk density of highly-charged compound”, “bulk density of powder obtained by drying a liquid composition containing a highly-charged compound and an additive other than PEG” or “bulk density of powder obtained by drying a liquid composition containing a pharmaceutically active compound”.
The bulk density of the acetaminophen powder containing PEG4000 (PEG adding ratio 0.03) obtained in Example 1 and the Compound (I-1) powder containing PEG4000 obtained in Example 2 were measured.
The powder was added to a vessel to reach the scale of 3 cc in a dry box and tapped three times. When the bulk is reduced, powder is added to the vessel to reach the scale of 3 cc and the same operation was repeated.
When the bulk no longer changed at 3 cc, addition of the powder was stopped and the bulk density (g/cc) was measured at that time.
Bulk densities of the acetaminophen powder (without adding PEG) and the Compound (I-1) powder (without adding PEG) were measured by the same method as controls.

Series [3] can be described thus: Observation of spray dried powder (transit performance, coloring, operability). The protocol:
Acetaminophen and PEG4000 were mixed at the following ratio: acetaminophen-PEG4000=2.8 g-701 mg (Mixed ratio 4:1, PEG adding ratio 0.25 (weight of PEG (mg) relative to 1 mg of pharmaceutical active compound)), acetaminophen-PEG4000=2.8 g-351 mg (Mixed ratio 8:1, PEG adding ratio 0.125), acetaminophen-PEG4000=2.8 g-176 mg (Mixed ratio 16:1, PEG adding ratio 0.06), and acetaminophen-PEG4000=14 g-437 mg (Mixed ratio 32:1, PEG adding ratio 0.03). The final concentration of acetaminophen was adjusted to 1.4% by weight by adding suitable amount of water and the solution was spray dried under the conditions mentioned below.
FIG. 1 is a photograph of the acetaminophen powder (PEG adding ratio 0.03) and FIG. 2 is a photograph of the acetaminophen powder(without adding PEG). • Spray drying condition • Spray dryer: Spray dryer SD-1000 (Tokyo Rikakikai Co., Ltd.) • Speed of pump: scale 30 (about 6 mL/min) • IN-let temperature: 170° C. • Out-let temperature: 95 to 100° C. • Drying air volume: 0.60 m^3/min • Spray drying pressure: 70 kPa
Compound (I-1) powder was manufactured by a similar manner to Example 2 except that PEG400 (111 mg) (PEG adding ratio 0.37) was used instead of PEG4000 and the final concentration of Compound (I-1) in the solution was adjusted to 19% by weight. […]

Series [4] in a line: Measurement of dissolution time (powder in 10 ml distilled water for injection, vial shaken). The protocol: The dissolving time is determined by shaking a vessel containing 300 mg of sample to be measured and 10 mL of water. In the case of pharmaceuticals, the sample to be measured should contain 300 mg of pharmaceutically active compound, and may contain a pharmaceutical additive. The shaking manner and time are not particularly limited. Concretely, measurement may be conducted according to the method described in Test example 3 described later.
The Compound (I-1) powder containing PEG (about 300 mg) which was obtained in Example 2 or 3 was filled in a vial (the capacity to the shoulder is 20 ml). After 10 ml of distilled water for injection was added to the vial, the vial was shaken 20 times (arm length: about 20 centimeters, the amplitude: […] and shaking speed: 20 times/ten seconds), and the dissolution time was measured.
(§1) 300 mg of Compound (I-l) and 150 mg of D-mannitol were mixed with suitable amount of sodium hydroxide. The solutions having various concentration (pH 9.5 to 9.75) were prepared. Thus-obtained solutions were spray dried under the same conditions as Example 1. The dissolution time of the obtained powder was measured by the same method as the above-mentioned Experiment 3. The particle diameter was measured under the following conditions. • Measuring condition of dry powder tester • Dry powder tester: SK Laser micron sizer LMS-30 (SEISHIN ENTERPRISE Co., Ltd.) • Carrier fluid: compressed air […] • Sample: about 20 to 30 mg

Series [5] can be described thus: Particle diameter by dry powder tester (SK Laser micron sizer LMS-30). Conditions: no PEG, with D-mannitol and NaOH, spray dried. The protocol:
The method of measuring “average particle size” used herein is not particularly limited, and measurement may be conducted in accordance with a manual of the particle size meter to be used. For example, about 20 to 30 mg of powder to be measured for its diameter is taken, and placed in the particle size meter for conducting measurement.
as §1

As for `CC(=O)Nc1ccc(O)cc1` [Acetaminophen, acetaminophen], the Average of charge in series [1] (acetaminophen powder spray dried with PEG4000, PEG adding ratio 0.03) is −1.43 q/m; in series [1] (acetaminophen powder without adding PEG, ratio 0) it was −12.86 q/m. Besides, the Bulk density in series [2] (solution 1.4% by weight, PEG4000, PEG adding ratio 0.03, spray dried) was found to be 0.659 g/cc; in series [2] (solution 1.4% by weight, without adding PEG, spray dried) it was 0.398 g/cc. Besides, the Coloring of powder entry in series [3] (spray dried solution containing only acetaminophen, without adding PEG (control)) is “a little coloring”; in series [3] (spray dried with PEG4000, PEG adding ratio 0.25, 0.125, 0.06, 0.03 (all samples)) it was “non-coloring”.

On to `CC1(C)CC[C@]2(C(=O)[O-])CC[C@]3(COC(=O)/C=C/c4cc(O)ccc4NC(=O)/C=C/C(=O)[O-])C(=CC[C@@H]4[C@@]5(C)CCC(=O)C(C)(C)[C@@H]5CC[C@]43C)[C@@H]2C1.[Na+].[Na+]` [Compound (I-1)], for which, in series [1] (Experiment 2; i) non-additive, 3000 particles; ii) PEG4000 + D-mannitol, PEG adding ratio 0.4, 505 particles), the Electric charge is recorded as −2.57 q/m. Moreover, the Dissolution time was 40 s in series [4] (no PEG, with D-mannitol and NaOH, solution 5% by weight (pH 9.5), spray dried); 10 s in series [4] (no PEG, with D-mannitol and NaOH, solution 10% by weight, spray dried); “under 20 second” in series [4] (no PEG, with D-mannitol and NaOH, solution 19% by weight (pH 9.75), spray dried); 10 s in series [4] (solution before drying 5% by weight, PEG4000, PEG adding ratio 0.37); 40 s in series [4] (solution before drying 5% by weight, non-additive, PEG adding ratio 0); 10 s in series [4] (solution before drying 19% by weight, PEG400, PEG adding ratio 0.37). Also, the Bulk density in series [2] (solution 18% by weight, PEG4000, PEG adding ratio 0.37, spray dried) was 0.395 g/cc; in series [2] (solution 18% by weight, without adding PEG, spray dried), 0.206 g/cc. Besides, the values for the Particle diameter in series [5] (solution 5% by weight (pH 9.5)), in series [5] (solution 10% by weight) and in series [5] (solution 19% by weight (pH 9.75)) were 8.9 μm, 10.1 μm and 11.6 μm, respectively.

The values are drawn from patent publication US20070009444A1, “Method for preparing powder exhibiting low susceptibility to electrification” (priority 2003, published 2007).
